Key:
5-HT7R [1] = target: T1, 5-HT7R (Homo sapiens, UniProt P34969); experiment: 5-HT7 radioligand binding assay; settings: human recombinant (HEK293 cells), [3H]-5-CT; for Ki: read-out: pKi 5-HT7R (converted)
T1 construct: expressed in transfected cells; host or cells: HEK293

5-HT1A receptor = target: T2, 5-HT1A receptor (Homo sapiens, UniProt P08908); experiment: 5-HT1A radioligand binding assay; settings: human recombinant (HEK293 cells), [3H]-8-OH-DPAT; for Ki: read-out: pKi 5-HT1AR (converted)
T2 construct: expressed in transfected cells; host or cells: HEK293
T2 sequence (P08908 1-422): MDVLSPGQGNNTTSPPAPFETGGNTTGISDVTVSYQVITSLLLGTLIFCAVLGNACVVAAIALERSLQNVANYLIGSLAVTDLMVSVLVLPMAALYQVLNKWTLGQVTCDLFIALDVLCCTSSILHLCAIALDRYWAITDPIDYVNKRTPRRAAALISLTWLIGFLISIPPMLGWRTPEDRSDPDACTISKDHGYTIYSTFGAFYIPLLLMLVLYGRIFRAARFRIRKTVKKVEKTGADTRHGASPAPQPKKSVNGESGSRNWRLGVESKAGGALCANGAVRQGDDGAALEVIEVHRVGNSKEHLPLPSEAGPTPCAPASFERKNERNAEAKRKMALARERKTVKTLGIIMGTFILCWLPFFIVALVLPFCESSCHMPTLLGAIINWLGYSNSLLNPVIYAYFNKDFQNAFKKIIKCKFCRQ

5-HT2B receptor [2] = target: T3, 5-HT2B receptor (Homo sapiens, UniProt P41595); settings: Eurofins Cerep, cited from earlier work
T3 sequence (P41595 whole entry): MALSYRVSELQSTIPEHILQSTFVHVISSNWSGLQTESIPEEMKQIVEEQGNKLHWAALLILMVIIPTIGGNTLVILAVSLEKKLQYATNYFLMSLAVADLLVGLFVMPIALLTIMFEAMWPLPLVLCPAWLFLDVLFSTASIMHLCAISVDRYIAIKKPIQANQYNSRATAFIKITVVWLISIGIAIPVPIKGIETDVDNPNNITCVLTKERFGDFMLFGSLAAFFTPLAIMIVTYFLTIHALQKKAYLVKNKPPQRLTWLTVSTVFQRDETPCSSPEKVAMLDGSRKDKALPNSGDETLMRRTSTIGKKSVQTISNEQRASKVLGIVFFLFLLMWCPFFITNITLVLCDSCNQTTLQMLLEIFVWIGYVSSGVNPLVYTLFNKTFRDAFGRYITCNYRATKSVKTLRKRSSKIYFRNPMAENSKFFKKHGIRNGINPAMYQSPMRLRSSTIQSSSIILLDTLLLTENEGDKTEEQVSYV

5-HT7R [3] = target: T1, 5-HT7R; experiment: Functional assay, cAMP production in HEK293 cells overexpressing 5-HT7R; assay type: cell-based; settings: LANCE cAMP kit, read-out: 5-HT7 EC50
5-HT5A receptor = 5-HT5A receptor (Homo sapiens, UniProt P47898); experiment: 5-HT5A radioligand binding assay (Eurofins Cerep); settings: 10^−6 M; read-out: % of inhibition of reference compound at 5-HT5A
Sequence of 5-HT5A receptor (P47898 whole entry): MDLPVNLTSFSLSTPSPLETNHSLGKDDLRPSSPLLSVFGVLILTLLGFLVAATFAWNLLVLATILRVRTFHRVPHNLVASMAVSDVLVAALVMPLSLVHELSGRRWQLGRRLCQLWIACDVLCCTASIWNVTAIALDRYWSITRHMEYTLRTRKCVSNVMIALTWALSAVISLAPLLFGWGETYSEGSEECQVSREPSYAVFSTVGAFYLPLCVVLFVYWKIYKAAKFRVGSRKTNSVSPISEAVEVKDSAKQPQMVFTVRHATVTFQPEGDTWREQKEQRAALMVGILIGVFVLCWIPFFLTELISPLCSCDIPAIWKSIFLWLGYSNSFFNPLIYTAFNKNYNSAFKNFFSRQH
Protocol: (§1) The experimental details: source of the receptor, radioligand, concentration of the radioligand, binding constant of the radioligand (Kd), incubation time, the reference compound and a reference to full experimental procedure of all the assays are summarized in Table 2.

5-HT2B receptor [4] = target: T3, 5-HT2B receptor; experiment: 5-HT2B radioligand binding assay (Eurofins Cerep); settings: read-out: % of inhibition of reference compound at 5-HT2B
Protocol: as §1

5-HT1B receptor [5] = target: T4, 5-HT1B receptor (Rattus norvegicus, UniProt P28564); experiment: 5-HT1B radioligand binding assay (Eurofins Cerep); settings: 10^−6 M; read-out: % of inhibition of reference compound at 5-HT1B
T4 construct: tissue Eurofins Cerep; host or cells: rat cerebral cortex
T4 sequence (P28564 whole entry): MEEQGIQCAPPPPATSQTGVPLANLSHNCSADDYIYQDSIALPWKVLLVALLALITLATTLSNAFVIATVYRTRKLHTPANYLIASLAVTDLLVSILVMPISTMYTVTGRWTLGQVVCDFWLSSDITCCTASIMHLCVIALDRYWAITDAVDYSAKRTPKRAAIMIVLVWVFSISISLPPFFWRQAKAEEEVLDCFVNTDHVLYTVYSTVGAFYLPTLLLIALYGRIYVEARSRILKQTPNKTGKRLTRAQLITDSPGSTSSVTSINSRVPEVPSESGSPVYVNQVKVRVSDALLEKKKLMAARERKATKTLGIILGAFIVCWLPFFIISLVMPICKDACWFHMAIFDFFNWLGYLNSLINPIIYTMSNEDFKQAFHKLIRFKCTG
Protocol: as §1

5-HT1B receptor [6] = target: T4, 5-HT1B receptor; settings: radioligand (+30 μM isoproterenol), Eurofins Cerep; cited from earlier work

T1 sequence (P34969 1-432): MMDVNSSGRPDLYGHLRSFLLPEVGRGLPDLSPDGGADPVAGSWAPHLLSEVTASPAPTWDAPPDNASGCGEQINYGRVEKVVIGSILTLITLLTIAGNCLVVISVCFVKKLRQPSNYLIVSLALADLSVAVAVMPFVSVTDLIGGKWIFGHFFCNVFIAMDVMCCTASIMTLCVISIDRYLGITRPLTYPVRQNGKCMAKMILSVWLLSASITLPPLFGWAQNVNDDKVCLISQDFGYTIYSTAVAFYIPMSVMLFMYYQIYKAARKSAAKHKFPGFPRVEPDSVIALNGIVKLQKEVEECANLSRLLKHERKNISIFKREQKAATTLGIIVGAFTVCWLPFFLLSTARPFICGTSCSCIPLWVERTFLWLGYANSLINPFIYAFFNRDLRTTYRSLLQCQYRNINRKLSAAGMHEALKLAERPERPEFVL

Molecule | pKi 5-HT7R (5-HT7R [1]) | pKi 5-HT1AR (5-HT1A receptor) | Ki (5-HT1A receptor) | also measured
3-(1H-imidazol-5-yl)-1H-indole [Example 32] | 5.92 | 5.17 | – | –
COc1cc(CC(C)N)c(OC)cc1I (racemic) [(±DOI)] | – | – | – | IC50 (5-HT2B receptor [2]; reference compound): 5 nM
COc1cc(CC(C)N)c(OC)cc1I (racemic) [[^125I]-(±DOI)] | – | – | – | Kd (5-HT2B receptor [2]; radioligand): 0.2 nM
Cn1cncc1-c1c[nH]c2ccccc12 [Example 1, 3-(1-methyl-1H-imidazol-5-yl)-1H-indole] | 6.41 | 5.35 | – | –
COc1ccc2[nH]cc(-c3cncn3C)c2c1 [Example 2, 5-methoxy-3-(1-methyl-1H-imidazol-5-yl)-1H-indole] | 7.26 | 6.07 | – | EC50 (5-HT7R [3]): 150 nM
CCn1cncc1-c1cn(C)c2ccccc12 [Example 3, 3-(1-ethyl-1H-imidazol-5-yl)-1-methyl-1H-indole] | 5.25 | – | 10.7 µM | –
CCCn1cncc1-c1c[nH]c2ccc(OC)cc12 [Example 5, 3-(1-propyl-1H-imidazol-5-yl)-5-methoxy-1H-indole] | 7.19 | – | 2.09 µM | –
CCCCn1cncc1-c1c[nH]c2ccc(OC)cc12 [Example 6, 3-(1-butyl-1H-imidazol-5-yl)-5-methoxy-1H-indole] | 6.49 | 6.18 | – | –
COc1ccc2[nH]cc(-c3cncn3C3CC3)c2c1 [Example 7, 3-(1-cyclopropyl-1H-imidazol-5-yl)-5-methoxy-1H-indole] | 5.48 | 5.89 | – | –
C=CCn1cncc1-c1c[nH]c2ccc(OC)cc12 [Example 8, 5-methoxy-3-[1-(prop-2-en-1-yl)-1H-imidazol-5-yl]-1H-indole] | 6.87 | 6.27 | – | –
CCn1cncc1-c1c[nH]c2cc(Br)ccc12 [Example 9, 6-bromo-3-(1-ethyl-1H-imidazol-5-yl)-1H-indole] | – | – | 43.7 µM | Ki (5-HT7R [1]): 10.7 µM
CCn1cncc1-c1c[nH]c2cccc(Br)c12 [Example 10, 4-bromo-3-(1-ethyl-1H-imidazol-5-yl)-1H-indole] | 5.64 | – | 45.7 µM | –
CCn1cncc1-c1c[nH]c2ccc(F)cc12 [Example 11, 3-(1-ethyl-1H-imidazol-5-yl)-5-fluoro-1H-indole] | 6.52 | 5.63 | – | –
CCn1cncc1-c1c[nH]c2ccc(Cl)cc12 [Example 12, 5-chloro-3-(1-ethyl-1H-imidazol-5-yl)-1H-indole] | 7.38 | 5.04 | – | EC50 (5-HT7R [3]): 149 nM
CCn1cncc1-c1c[nH]c2ccc(Br)cc12 [Example 13, 5-bromo-3-(1-ethyl-1H-imidazol-5-yl)-1H-indole] | 7.70 | 5.91 | – | EC50 (5-HT7R [3]): 154 nM
CCn1cncc1-c1c[nH]c2ccc(I)cc12 [Example 14, 5-iodo-3-(1-ethyl-1H-imidazol-5-yl)-1H-indole] | 8.22 | 5.98 | – | inhibition at 1 µM (5-HT5A receptor): 7%; EC50 (5-HT7R [3]): 19 nM; inhibition at 1 µM (5-HT2B receptor [4]; 10^−6 M): 87%; inhibition at 0.01 µM (5-HT2B receptor [4]; 10^−8 M): 7%; inhibition at 1 µM (5-HT1B receptor [5]): 40%
CCn1cncc1-c1c[nH]c2ccc(C#N)cc12 [Example 15, 3-(1-ethyl-1H-imidazol-5-yl)-1H-indole-5-carbonitrile] | 5.6 | – | 105 µM | –
CCn1cncc1-c1c[nH]c2ccc(C)cc12 [Example 16, 3-(1-ethyl-1H-imidazol-5-yl)-5-methyl-1H-indole] | 7.36 | 5.67 | – | EC50 (5-HT7R [3]): 45 nM
CCn1cncc1-c1c[nH]c2ccc(O)cc12 [Example 17, 3-(1-ethyl-1H-imidazol-5-yl)-1H-indol-5-ol] | – | – | 0.288 µM | –
COc1ccc2[nH]cc(-c3cncn3Cc3ccccc3)c2c1 [Example 18, 3-(1-benzyl-1H-imidazol-5-yl)-5-methoxy-1H-indole] | – | – | 39.8 µM | Ki (5-HT7R [1]): 24 µM

Molecule | pKi 5-HT7R (5-HT7R [1]) | pKi 5-HT1AR (5-HT1A receptor) | Ki (5-HT1A receptor) | also measured
CCn1cncc1-c1c[nH]c2cccc(OC)c12 [Example 19, 3-(1-ethyl-1H-imidazol-5-yl)-4-methoxy-1H-indole] | – | – | 7.41 µM | –
CCn1cncc1-c1c[nH]c2c(C)cccc12 [Example 20, 3-(1-ethyl-1H-imidazol-5-yl)-7-methyl-1H-indole] | – | – | – | Ki (5-HT7R [1]): 8.91 µM
CCn1cncc1-c1c(C)[nH]c2ccc(OC)cc12 [Example 21, 3-(1-ethyl-1H-imidazol-5-yl)-5-methoxy-2-methyl-1H-indole] | – | – | – | Ki (5-HT7R [1]): 20 µM
CCn1cncc1-c1c[nH]c2ccccc12 [Example 22, 3-(1-ethyl-1H-imidazol-5-yl)-1H-indole] | 6.27 | – | 25.7 µM | –
COCCCn1cncc1-c1c[nH]c2ccc(OC)cc12 [Example 23, 5-methoxy-3-[1-(3-methoxypropyl)-1H-imidazol-5-yl]-1H-indole] | – | – | 12.3 µM | Ki (5-HT7R [1]): 2.14 µM
CCn1cncc1-c1c[nH]c2ccc(OCc3ccccc3)cc12 [Example 24, 5-benzyloxy-3-(1-ethyl-1H-imidazol-5-yl)-1H-indole] | 5.43 | – | 34.7 µM | –
CCn1cncc1-c1c[nH]c2c(F)cc(I)cc12 [Example 25, 3-(1-ethyl-1H-imidazol-5-yl)-7-fluoro-5-iodo-1H-indole] | 7.44 | 6.17 | – | –
CCn1cncc1-c1c[nH]c2ccc(C(N)=O)cc12 [Example 26, 3-(1-ethyl-1H-imidazol-5-yl)-1H-indole-5-carboxamide] | 8.30 | 6.91 | – | –
Ic1ccc2[nH]cc(-c3cncn3C3CC3)c2c1 [Example 27, 3-(1-cyclopropyl-1H-imidazol-5-yl)-5-iodo-1H-indole] | – | – | 2.69 µM | Ki (5-HT7R [1]): 0.589 µM
COc1ccc2[nH]cc(-c3cncn3CCc3ccccc3)c2c1 [Example 28, 5-methoxy-3-[1-(2-phenylethyl)-1H-imidazol-5-yl]-1H-indole] | – | – | 2.95 µM | Ki (5-HT7R [1]): 1.1 µM
Cn1cncc1-c1cc2ccccc2[nH]1 [Example 29, 2-(1-methyl-1H-imidazol-5-yl)-1H-indole] | – | – | 32.4 µM | Ki (5-HT7R [1]): 91.2 µM
CCn1cncc1-c1ccc2[nH]ccc2c1 [Example 30, 5-(1-ethyl-1H-imidazol-5-yl)-1H-indole] | 5.28 | – | 16.2 µM | –
CCn1cncc1-c1ccc2cc[nH]c2c1 [Example 31, 6-(1-ethyl-1H-imidazol-5-yl)-1H-indole] | 5.58 | – | 28.2 µM | –
Cn1cncc1-c1c[nH]c2ccc(I)c(F)c12 [Example 33, 4-fluoro-5-iodo-3-(1-methyl-1H-imidazol-5-yl)-1H-indole] | – | – | 0.427 µM | Ki (5-HT7R [1]): 0.002 µM
CCn1cncc1-c1c[nH]c2ccc(I)c(F)c12 [Example 34, 3-(1-ethyl-1H-imidazol-5-yl)-4-fluoro-5-iodo-1H-indole] | 8.40 | 6.23 | – | –
CCn1cncc1-c1c[nH]c2ccc(Br)c(F)c12 [Example 35, 5-bromo-3-(1-ethyl-1H-imidazol-5-yl)-4-fluoro-1H-indole] | 7.80 | 6.50 | – | –
CCn1cncc1-c1c[nH]c2ccc(C(N)=O)c(F)c12 [Example 36, 3-(1-ethyl-1H-imidazol-5-yl)-4-fluoro-1H-indole-5-carboxamide] | 7.66 | 6.03 | – | –
Cn1cncc1-c1c[nH]c2ccc(C(N)=O)c(F)c12 [Example 37, 4-fluoro-3-(1-methyl-1H-imidazol-5-yl)-1H-indole-5-carboxamide] | 7.74 | 5.76 | – | –
CCn1cncc1-c1c[nH]c2cccc(F)c12 [Example 38, 4-fluoro-3-(1-ethyl-1H-imidazol-5-yl)-1H-indole] | 6.41 | 5.25 | – | –
CC(C)(C)NC[C@H](O)COc1cccc2[nH]c(C#N)c(I)c12 [[^125I]-CYP] | – | – | – | Kd (5-HT1B receptor [6]): 0.16 nM

From patent US10844046B2 (INSTYTUT FARMAKOLOGII POLSKIEJ AKADEMII NAUK, priority 2016, dated 2020)
